Measurements from paper PMC6556873, “Rapid Covalent-Probe Discovery by Electrophile-Fragment Screening” (Journal of the American Chemical Society, 2019).
Like-named read-outs stand apart in the source and are kept apart here.

Legend:
OTUB2 (OTUB2A) = target: T1, OTUB2 (OTUB2A) (Homo sapiens, UniProt Q96DC9); design: Intact protein LC/MS covalent labelling, fragments in pools of five, 200 uM each, 4 °C; conditions: 24 h, 4 °C, pool of five; 200 µM; covalent
T1 construct: full length residues 1-234, E. coli BL21(DE3)-R3, His tag removed by TEV, construct 27312 Da
T1 sequence (Q96DC9 1-234): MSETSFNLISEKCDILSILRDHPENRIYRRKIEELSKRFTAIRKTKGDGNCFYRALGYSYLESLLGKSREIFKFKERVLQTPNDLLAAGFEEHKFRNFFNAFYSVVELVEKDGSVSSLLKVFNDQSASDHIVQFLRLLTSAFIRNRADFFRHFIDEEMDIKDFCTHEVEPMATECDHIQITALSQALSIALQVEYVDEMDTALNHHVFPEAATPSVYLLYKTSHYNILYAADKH

BSA = target: T2, BSA (Bos taurus, UniProt P02769); design: Intact protein LC/MS covalent labelling, fragments in pools of five, 200 uM each, 4 °C; conditions: 24 h, 4 °C, pool of five; 200 µM; covalent
T2 construct: gene ALB
T2 sequence (P02769 whole entry, the tested form may be a part): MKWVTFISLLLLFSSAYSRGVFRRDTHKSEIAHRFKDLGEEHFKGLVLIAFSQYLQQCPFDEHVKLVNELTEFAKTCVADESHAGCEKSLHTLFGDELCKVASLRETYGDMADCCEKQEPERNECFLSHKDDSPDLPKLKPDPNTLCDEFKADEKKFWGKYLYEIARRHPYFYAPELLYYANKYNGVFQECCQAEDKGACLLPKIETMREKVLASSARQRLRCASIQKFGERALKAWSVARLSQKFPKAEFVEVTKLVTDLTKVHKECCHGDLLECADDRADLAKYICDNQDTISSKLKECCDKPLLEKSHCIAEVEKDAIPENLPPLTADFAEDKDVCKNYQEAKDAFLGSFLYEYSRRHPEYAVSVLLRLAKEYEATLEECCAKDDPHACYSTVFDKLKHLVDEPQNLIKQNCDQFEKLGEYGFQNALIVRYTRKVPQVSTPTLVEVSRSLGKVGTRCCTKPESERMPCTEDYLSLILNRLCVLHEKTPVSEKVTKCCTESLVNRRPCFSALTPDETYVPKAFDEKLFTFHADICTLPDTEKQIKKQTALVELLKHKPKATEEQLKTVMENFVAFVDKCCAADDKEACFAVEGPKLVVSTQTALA

NUDT7 = target: T3, NUDT7 (Homo sapiens, UniProt P0C024); design: Intact protein LC/MS covalent labelling, fragments in pools of five, 200 uM each, 4 °C; conditions: 24 h, 4 °C, pool of five; 200 µM; covalent
T3 construct: residues 14-235, E. coli, pNIC28-Bsa4, N-terminal His6 tag removed by TEV, construct 26672 Da
T3 sequence (P0C024 14-235): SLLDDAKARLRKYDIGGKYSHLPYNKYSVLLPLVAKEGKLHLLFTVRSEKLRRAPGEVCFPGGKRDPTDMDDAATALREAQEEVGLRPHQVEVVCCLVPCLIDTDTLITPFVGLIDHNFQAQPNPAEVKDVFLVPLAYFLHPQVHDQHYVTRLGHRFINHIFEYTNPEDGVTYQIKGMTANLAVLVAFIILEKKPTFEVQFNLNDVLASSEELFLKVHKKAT

PCAF = target: T4, PCAF (Homo sapiens, UniProt Q92831); design: Intact protein LC/MS covalent labelling, fragments in pools of five, 200 uM each, 4 °C; conditions: 24 h, 4 °C, pool of five; 200 µM; covalent
T4 construct: gene KAT2B
T4 sequence (Q92831 whole entry, the tested form may be a part): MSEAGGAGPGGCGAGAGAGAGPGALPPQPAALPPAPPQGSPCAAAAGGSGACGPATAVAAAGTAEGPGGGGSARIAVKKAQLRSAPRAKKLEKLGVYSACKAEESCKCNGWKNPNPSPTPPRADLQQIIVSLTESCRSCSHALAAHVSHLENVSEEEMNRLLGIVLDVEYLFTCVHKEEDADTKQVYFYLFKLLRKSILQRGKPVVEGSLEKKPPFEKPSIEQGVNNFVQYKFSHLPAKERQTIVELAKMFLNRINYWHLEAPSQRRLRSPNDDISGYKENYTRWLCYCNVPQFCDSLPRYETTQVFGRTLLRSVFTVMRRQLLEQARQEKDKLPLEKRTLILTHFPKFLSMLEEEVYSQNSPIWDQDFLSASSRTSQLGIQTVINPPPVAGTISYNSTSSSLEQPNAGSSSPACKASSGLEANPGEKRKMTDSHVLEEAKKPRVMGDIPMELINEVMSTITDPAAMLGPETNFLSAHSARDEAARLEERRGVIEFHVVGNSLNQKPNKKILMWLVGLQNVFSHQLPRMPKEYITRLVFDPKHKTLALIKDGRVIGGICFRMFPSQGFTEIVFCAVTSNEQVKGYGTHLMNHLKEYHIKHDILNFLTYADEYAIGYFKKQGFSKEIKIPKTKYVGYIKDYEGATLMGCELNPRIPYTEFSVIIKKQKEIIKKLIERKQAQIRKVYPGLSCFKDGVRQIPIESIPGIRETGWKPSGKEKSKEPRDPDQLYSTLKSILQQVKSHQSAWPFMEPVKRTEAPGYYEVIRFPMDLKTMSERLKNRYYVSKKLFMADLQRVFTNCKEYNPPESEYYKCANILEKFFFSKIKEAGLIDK

in vitro [1] = assay: in vitro; design: species or system HB2, CCD841; conditions: human, hek293 cells
in vitro [2] = assay: in vitro; design: species or system CCD841, HEK293; conditions: human, hb2 cells, read-out: HB-2 Cells Viability (%)
in vitro [3] = assay: in vitro; design: species or system HB2, HEK293; conditions: human, ccd841 cells

Row | Compound | OTUB2 (OTUB2 (OTUB2A)) | BSA (BSA) | NUDT7 (NUDT7) | PCAF (PCAF) | viability at 48 h, 10 µM (in vitro [1]) | viability at 48 h, 10 µM (in vitro [2]) | viability at 48 h, 10 µM (in vitro [3])
1 | CCC1CCCCN1C(=O)CCl (stereo not drawn) [PCM-0102828] | 0 | 0 | 0.04 | 0 | 69.4% | 85.9% | 80.9%
2 | O=C(CCl)Nc1ccc(Br)cc1 [PCM-0102992] | 0.08 | 0 | 0.11 | 0 | 4.4% | 12.2% | 52.9%
3 | CN(Cc1cccs1)C(=O)CCl [PCM-0102636] | 0 | 0 | 0.17 | 0 | 7% | 11.3% | 57.7%
4 | CC(c1ccc(Cl)cc1)N(C)C(=O)CCl (stereo not drawn) [PCM-0102556] | 0 | 0 | 0.39 | 0 | 3.1% | 4.9% | 11.5%
5 | Cl.O=C(CCl)N1CCN(c2ccc(O)cc2)CC1 [PCM-0102357] | 0 | 0 | 0 | 0 | 12.7% | 31% | 76.7%
6 | C=CC(=O)Nc1nc(-c2ccccc2C)cs1 [PCM-0102845] | 0 | 0 | 0 | 0 | 93.4% | 107% | 106%
7 | CC(=O)Nc1cccc(NC(=O)CCl)c1 [PCM-0102172] | 0 | 0 | 0 | 0 | 4.7% | 35.9% | 53.4%
8 | C=CC(=O)N1CCCC(c2nnc3ccc(C(F)(F)F)cn23)C1 (stereo not drawn) [PCM-0102606] | 0 | 0 | 0 | 0 | 126% | 107% | 111%
9 | Cc1ccc(N(C(=O)CCl)C2C=CS(=O)(=O)C2)cc1 (stereo not drawn) [PCM-0102539] | 0.16 | 0 | 0.33 | 0 | 4.7% | 23.3% | 31.5%
10 | CC1CC(=O)Nc2ccccc2N1C(=O)CCl (stereo not drawn) [PCM-0102697] | 0 | 0 | 0.22 | 0 | 52.8% | 83.7% | 62.6%
11 | C=CC(=O)N1CCC(C(=O)c2ccc3c(c2)NC(=O)C(C)O3)CC1 (stereo not drawn) [PCM-0102524] | 0 | 0 | 0 | 0 | 80.6% | 103% | 99.7%
12 | C=CC(=O)N1CCC(c2nc(C(F)(F)F)cs2)CC1 [PCM-0102525] | 0 | 0 | 0 | 0 | 96.6% | 95.8% | 128%
13 | O=C(CCl)Nc1nccs1 [PCM-0102242] | 0 | 0.17 | 0 | 0 | 70.1% | 88.3% | 79.3%
14 | CC(C)c1nnc(NC(=O)CCl)s1 [PCM-0102928] | 0 | 0 | 0.04 | 0 | 81.8% | 85.3% | 77.9%
15 | COC(=O)CNC(=O)CCl [PCM-0102906] | 0.06 | 0 | 0 | 0 | 112% | 87.7% | 86.7%
16 | CN(Cc1cc(C#N)ccc1F)C(=O)CCl [PCM-0102897] | 0 | 0 | 0.07 | 0 | 9.6% | 23.8% | 69.2%
17 | O=C(CCl)Nc1ccc(Br)cc1Cl [PCM-0102505] | 0.07 | 0 | 0.59 | 0 | 31.6% | 41.7% | 74.6%
18 | O=C(CCl)N1CCOC(c2ccc(F)cc2)C1 (stereo not drawn) [PCM-0102615] | 0 | 0 | 0 | 0 | 4.8% | 2% | 12.6%
19 | C=CC(=O)N1CCC(n2ncc3ccccc32)C1 (stereo not drawn) [PCM-0102966] | 0.42 | 0 | 0 | 0 | 86.3% | 105% | 95.1%
20 | C=CC(=O)NCc1c2c(nn1C)CCCC2 [PCM-0103044] | 0.08 | 0 | 0 | 0 | 74.2% | 97.2% | 98.1%
21 | C=CC(=O)Nc1ccc2c(c1)NC(=O)CO2 [PCM-0102499] | 0 | 0 | 0.1 | 0 | 71.7% | 104% | 108%
22 | O=C(CCl)NC(=O)NC1CC1 [PCM-0102411] | 0 | 0 | 0 | 0 | 109% | 96.7% | 84.9%
23 | Cc1ccc(-c2csc(NC(=O)CCl)n2)cc1 [PCM-0102168] | 0 | 0 | 0.4 | 0 | 5.5% | 5.5% | 67.9%
24 | CC(c1ccccc1)N(C)C(=O)CCl (stereo not drawn) [PCM-0102478] | 0 | 0 | 0.1 | 0 | 27.5% | 27.5% | 60.7%
